Assay results reported in patent publication US11229709B2, “Dendrimer drug conjugates for sustained intra-articular delivery” (Massachusetts Institute of Technology, priority 2017, dated 2022).

Experiments:
[1] = Joint residence time after intra-articular injection (IVIS imaging); details: rats, calculated from half-life, dose injected and drug EC50
Description: Prior to injection, knee joints were shaved and disinfected with iodine scrub and 70% ethanol, 3 times. Rats were serially imaged at timepoints using a IVIS Spectrum (Perkin-Elmer) instrument at 640/680 nm. Images were quantified by drawing an anatomical Region of Interest (ROI) around the knee joint, applying to each image, and measuring radiant efficiency within the ROI on Living Image (Perkin-Elmer) software. Data for each treatment group was fit to a single exponential decay curve (FIG. 4C) with a terminal plateau assigned to all groups based on imaging an untreated rat.

[2] = test system: medial tibia cartilage degeneration; assay: Rat surgical osteoarthritis model ACLT+MMx, histological analysis; format: in vivo; parameters: mean area of degenerated medial tibial cartilage, % of total cartilage area: dose or concentration left out as unconfirmed; details: single intra-articular injection 48 hours after surgery
Description: (§1) Skeletally mature male Sprague-Dawley rats of 12 weeks of age (350-400 g, Taconic) were injured by the Anterior Cruciate Ligament Transection and Partial Medial Meniscectomy (ACLT+pMMx) method to induce arthritis. […] Treatments were given by intra-articular injection into the affected joint 48 hours after surgery, using a joint concentration of 6 M IGF-1. Rats were sacrificed for analysis 30 days after surgery.
Histological processing and analysis was performed according to the guidelines for rat surgical models by the Osteoarthritis Research Society International (OARSI) histopathology initiative (Gerwin et al, Osteoarthritis and Cartilage, 2010, Schmitz et al, Osteoarthritis and Cartilage 2010). Six 250 μm frontal step sections were taken from the central ˜1.5 mm of the joint and stained with Toluidine Blue/Fast Green. Aggrecan in healthy cartilage is stained blue (dark) and collagens in bone or degenerated cartilage are stained green (light). The section with the most severe medial tibia cartilage lesion was identified by a blinded investigator and used for all further analysis. Sections were scored quantitatively for degeneration in a blinded manner by histomorphometry techniques based on OARSI histopathology initiative guidelines.
Degenerated tissue was defined as >50% cell death and loss of toluidine blue staining. […]

osteophytes = assay: Rat surgical osteoarthritis model ACLT+MMx, micro-computed tomography osteophyte volume; format: in vivo; details: single injection after surgery
Description: as §1
After fixation and before decalcification, excised rat joints were attached to the bore of a microCT scanner (GE eXplore CT 120) and scanned at 0.03° angles for a total of 1200 scans over a time period of 1.5 hours. Scans used an 80 kV x-ray potential, 32 mA current, and a 100 ms integration time. Image data sets were reconstructed into regions of interest encompassing single joints using Microview software (Parallax Innovations).
3D positioning data were used to quantify total volume of osteophytes (bone spurs) on each joint. 3D DICOM analysis software (Osirix MD) was used by a blinded investigator to re-section the images into a uniform frontal plane, perpendicular to an axis tangential to the femoral condyles and tibial plateau in the sagittal plane and an axis bisecting the femoral condyles and tibial plateau in the transverse plane. […] The sections were then reconstructed to 3D, and total osteophyte ROI volume was calculated for each rat. […]

Q: Which “time at relevant (therapeutic) doses in the joint” value [1] does the source give for insulin like growth factor 1 [IGF-1] here?
A: The value was 3 days.

Q: What about the “mean width of cartilage degeneration at the cartilage surface (0% tissue depth)” value ([2]; 30 days after surgery) of the same substance?
A: Its value is 1390 μm.

Q: And the “mean area of degenerated medial tibial cartilage, % of total cartilage area” value ([2]; joint concentration of IGF-1, 30 days after surgery)?
A: Its value is 19.7%.

Q: And the “reduction of osteophyte burden versus untreated” value (osteophytes)?
A: The value was about 50%.

Q: What about the “mean total osteophyte volume (burden)” value (osteophytes; 30 days after surgery, microCT) of the same substance?
A: Its value is 0.60 mm^3.
